Source: PMC6470885 (Molecules, 2019)
Residues, ends and D or L forms follow the SMILES beside them.

Legend:
Assay type in all cases: cell-based
[1] = tested on: HIV-1 NL4-3 D36G/E49K/N126K; conditions: HP23-resistant D36G/E49K/N126K; p24 ELISA; mean ± SD of three independent experiments
Experimental: (§1) Inhibitory activities of peptides on infection by HIV-1 X4 strain IIIB, R5 strain Bal, and T20-, T2635-, HP23-resistant strains were determined as previously described [42]. For each well of a 96-well plate, 50 μL of a peptide were mixed with 50 μL of 100 × TCID50 (50% tissue culture infective doses) of HIV-1 live virus and incubated at 37 °C for 30 min. Afterwards, 2 × 10^4 MT-2 (for X4 virus) or CEMx174 5.25 M7 cells (for R5 virus) were added. After overnight culture, the supernatant was replaced with fresh RPMI-1640 medium containing 10% fetal bovine serum (FBS). After further culture at 37 °C for three days, 50 μL of the culture medium were collected and mixed with equal volume of 5% (v/v) Triton X-100. The p24 antigen, which represents HIV-1 quantity, was detected by ELISA. Briefly, the collected mixtures were added to a plate coated with anti-HIV Immune Globulin (HIVIG) from the NIH AIDS Reagent Program. Anti-p24 mAb 183, rabbit anti-mouse IgG-HRP (Dako, Glostrup, Denmark) and substrate 3,3,5,5-TMB (Sigma-Aldrich, New York, NY) were added and washed away sequentially. The absorbance at 450 nm (A450) was determined by a Multi-Detection Microplate Reader (Ultra 384, Tecan, Tokyo, Japan). IC50s were calculated using Calcusyn software (Biosoft, Ferguson, MO), and the lines of best fit were drawn using GraphPad Prism 8 software (La Jolla, CA).

HIV-1 LAI A6V = conditions: T2635-resistant A6V; p24 ELISA; mean ± SD of three independent experiments
Experimental: as §1

HIV-1 LAI Q66R = conditions: T2635-resistant Q66R; p24 ELISA; mean ± SD of three independent experiments
Experimental: as §1

[2] = tested on: HIV-1 NL4-3 (D36G) V38E, N42S; conditions: T20-resistant (D36G) V38E, p24 ELISA, mean ± SD of three independent experiments
Experimental: as §1

[3] = tested on: HIV-1 NL4-3 (D36G) V38A, N42D; conditions: T20-resistant (D36G) V38A, p24 ELISA, mean ± SD of three independent experiments
Experimental: (§2) For each well of a 96-well plate, 50 μL of a peptide were mixed with 50 μL of 100 × TCID50 (50% tissue culture infective doses) of HIV-1 live virus and incubated at 37 °C for 30 min. Afterwards, 2 × 10^4 MT-2 (for X4 virus) or CEMx174 5.25 M7 cells (for R5 virus) were added. After overnight culture, the supernatant was replaced with fresh RPMI-1640 medium containing 10% fetal bovine serum (FBS). After further culture at 37 °C for three days, 50 μL of the culture medium were collected and mixed with equal volume of 5% (v/v) Triton X-100. The p24 antigen, which represents HIV-1 quantity, was detected by ELISA. Briefly, the collected mixtures were added to a plate coated with anti-HIV Immune Globulin (HIVIG) from the NIH AIDS Reagent Program. Anti-p24 mAb 183, rabbit anti-mouse IgG-HRP (Dako, Glostrup, Denmark) and substrate 3,3,5,5-TMB (Sigma-Aldrich, New York, NY) were added and washed away sequentially. The absorbance at 450 nm (A450) was determined by a Multi-Detection Microplate Reader (Ultra 384, Tecan, Tokyo, Japan). IC50s were calculated using Calcusyn software (Biosoft, Ferguson, MO), and the lines of best fit were drawn using GraphPad Prism 8 software (La Jolla, CA).

HIV-1 LAI (WT) = conditions: p24 ELISA, mean ± SD of three independent experiments
HIV-1 NL4-3 E49K/N126K = conditions: HP23-resistant E49K/N126K; p24 ELISA; mean ± SD of three independent experiments
Experimental: as §1

HIV-1 LAI K90E = conditions: T2635-resistant K90E; p24 ELISA; mean ± SD of three independent experiments
Experimental: as §1

[4] = tested on: cell-cell fusion between H9/IIIB cells and MT-2 cells; assay: HIV-1-mediated cell-cell fusion (dye transfer assay); conditions: Calcein AM dye transfer; peptide 37 °C 30 min, then MT-2 cells 2 h; read-out: IC50 against cell-cell fusion between H9/IIIB cells and MT-2 cells
Experimental: A dye transfer assay was performed to detect HIV-1 Env-mediated cell-cell fusion as described previously. Briefly, for each well of a 96-well plate, 2 × 10^3 H9/IIIB cells labeled with the fluorescent reagent Calcein AM (Molecular Probes, Inc., Eugene, Oregon) were incubated with a CHR-peptide at 37 °C for 30 min. Afterwards, 10^4 MT-2 cells were added and incubated at 37 °C for 2 h. The fused and unfused Calcein-labeled H9/IIIB cells were counted under an inverted fluorescence microscope (Zeiss, Oberkochen, Germany). The IC50 values were calculated by using the Calcusyn computer program (Biosoft, Ferguson, MO).

[5] = tested on: HIV-1 NL4-3 L34S/D36G/E49K/E136G; conditions: HP23-resistant L34S/D36G/E49K/E136G; p24 ELISA; mean ± SD of three independent experiments
Experimental: as §1

HIV-1 NL4-3 (WT) = conditions: p24 ELISA, mean ± SD of three independent experiments
Experimental: as §1

HIV-1 LAI K90E/N126K = conditions: T2635-resistant K90E/N126K; p24 ELISA; mean ± SD of three independent experiments
Experimental: as §1

HIV-1IIIB (X4 virus) = tested on: HIV-1IIIB (X4 virus)
Experimental: To determine whether a peptide binds with the target cells in order to execute its anti-HIV-1 activity, cell wash and nonwash assays were performed as previously described. Briefly, 2 × 10^4 MT-2 cells were incubated with a peptide at 4 °C for 30 min, followed by washes of the pretreated cells to remove the unbound peptide (control: without washes) before addition of HIV-1IIIB (100 × TCID50). After culture at 37 °C overnight, the supernatant was replaced by fresh RPMI-1640 medium containing 10% FBS. The inhibitory activity of the cell-bound peptide in the wash group and free peptide in the nonwash group was determined as described above.

HIV-1 NL4-3 (D36G) V38A = conditions: T20-resistant (D36G) V38A; p24 ELISA; mean ± SD of three independent experiments
Experimental: as §2

HIV-1 NL4-3 D36G (WT) = conditions: p24 ELISA, mean ± SD of three independent experiments
Experimental: as §1

HIV-1 NL4-3 E49K = conditions: HP23-resistant E49K; p24 ELISA; mean ± SD of three independent experiments
Experimental: as §1

[6] = tested on: HIV-1 NL4-3 (D36G) V38A, N42T; conditions: T20-resistant (D36G) V38A, p24 ELISA, mean ± SD of three independent experiments
Experimental: as §1

HIV-1 LAI K154Q = conditions: T2635-resistant K154Q; p24 ELISA; mean ± SD of three independent experiments
Experimental: as §1

HIV-1 LAI Q79E/N126K = conditions: T2635-resistant Q79E/N126K; p24 ELISA; mean ± SD of three independent experiments
Experimental: as §1

[7] = tested on: HIV-1 NL4-3 (D36G) N42T, N43K; conditions: T20-resistant (D36G) N42T, p24 ELISA, mean ± SD of three independent experiments
Experimental: as §1

For `CC[C@H](C)[C@H](NC(=O)[C@H](CCC(N)=O)NC(=O)[C@H](CCC(N)=O)NC(=O)[C@H](CC(N)=O)NC(=O)[C@H](CCC(N)=O)NC(=O)[C@H](CO)NC(=O)[C@H](CCCCN)NC(=O)[C@H](CCCCN)NC(=O)[C@H](CC(C)C)NC(=O)[C@@H](NC(=O)[C@H](CCC(=O)O)NC(=O)[C@H](CCC(=O)O)NC(=O)[C@@H](NC(=O)[C@H](CCCCN)NC(=O)[C@H](CCCCN)NC(=O)[C@@H](NC(=O)[C@H](Cc1ccc(O)cc1)NC(=O)[C@H](CCC(=O)O)NC(=O)[C@H](CCC(=O)O)NC(=O)[C@@H](NC(=O)[C@H](CCCCN)NC(=O)[C@H](CCCCN)NC(=O)[C@H](CCC(=O)O)NC(=O)[C@H](Cc1c[nH]c2ccccc12)NC(=O)[C@H](CCC(=O)O)NC(=O)[C@H](CCC(=O)O)NC(=O)[C@H](Cc1c[nH]c2ccccc12)NC(=O)[C@@H](NC(=O)[C@H](CCSC)NC(=O)[C@@H](N)CCC(=O)O)[C@@H](C)O)[C@@H](C)CC)[C@@H](C)O)[C@@H](C)CC)[C@@H](C)CC)C(=O)N[C@@H](CC(=O)O)C(=O)N[C@@H](CC(C)C)C(=O)O` [HP23-E6-IDL] (H-EMTWEEWEKKIEEYTKKIEEILKKSQNQQIDL-OH), the IC50 [1] was 3.14 ± 0.4 nM, the IC50 (HIV-1 LAI A6V) was 0.349 ± 0.019 nM and the IC50 (HIV-1 LAI Q66R) was 0.496 ± 0.168 nM. It also gave an IC50 [2] of 0.748 ± 0.012 nM, an IC50 [3] of 1.54 ± 0.253 nM and an IC50 (HIV-1 LAI (WT)) of 0.932 ± 0.059 nM. For the same compound, the IC50 (HIV-1 NL4-3 E49K/N126K) was 2.56 ± 0.318 nM, the IC50 (HIV-1 LAI K90E) was 1.42 ± 0.242 nM and the IC50 [4] was 1.14 nM. The IC50 [5] was 4.94 ± 1.1 nM, the IC50 (HIV-1 NL4-3 (WT)) was 0.699 ± 0.025 nM and the IC50 (HIV-1 LAI K90E/N126K) was 0.842 ± 0.066 nM. The IC50 (HIV-1IIIB (X4 virus)) was 2.4 nM, the IC50 (HIV-1 NL4-3 (D36G) V38A) was 0.647 ± 0.024 nM and the IC50 (HIV-1 NL4-3 D36G (WT)) was 0.912 ± 0.029 nM. It also gave an IC50 (HIV-1 NL4-3 E49K) of 2.04 ± 0.126 nM, an IC50 [6] of 0.838 ± 0.031 nM and an IC50 (HIV-1 LAI K154Q) of 1.25 ± 0.249 nM. For the same compound, the IC50 (HIV-1 LAI Q79E/N126K) was 1.31 ± 0.059 nM and the IC50 [7] was 0.941 ± 0.019 nM.
